Results published in patent US20260151398A1, “COMPOUNDS FOR REDUCING CHOLESTEROL AND TREATING LIVER AND KIDNEY DISEASE” (McMaster University, priority 2021, published 2026).
“Also recorded” adds a separate entry of the source.

How the values were obtained:
PCSK9 = PCSK9 expression in hepatocytes (immunoblot, real-time PCR); type: cell-based, human, mouse
Protocol: HuH7 and HepG2 cells were routinely grown in complete Dulbecco's Modified Eagle's Medium (Gibco, Thermofisher Scientific) supplemented with 10% fetal bovine serum (Sigma-Aldrich) and 100 U/ml of penicillin and streptomycin (Sigma-Aldrich). […] All cell treatments were carried out for 24 h unless otherwise stated. Cells were transfected with a cocktail consisting of plasmid DNA (1 μg), X-tremeGENE HP (3 μl; Thermofisher Scientific) and opti-MEM (100 μl; Thermofischer Scientific) per 1 ml complete medium containing plated cells. Human PCSK9 was overexpressed using the bicistronic pIRES-EGFP plasmid; calnexin using the mPA-GFP-N1 plasmid. To block the expression of GRP78 and CD36, siGENOME smartpool siRNA was purchased from GE Dharmacon (M-008198-02 and L-010206-00-0005 respectively) and transfected using lipofectamine RNAiMAX as per manufacturer's protocol.
(§1) Cells were washed in phosphate-buffered saline (PBS), lysed in 4× SDS-PAGE lysis buffer and separated on 7-10% polyacrylamide gels in denaturing conditions. Gels were transferred to nitrocellulose membranes using the BioRad mini trans-blot system, blocked in 5% skim milk in tris-buffered saline (TBS) for 1 h and incubated in primary antibody overnight for 16 h at 4° C. Membranes were then exposed to horse radish peroxidase conjugated secondary antibodies and visualized using EZ-ECL chemiluminescent reagent (Froggabio). Band intensities were quantified using ImageJ software ([…]) against membranes reprobed for housekeeping proteins.
(§2) RNA purification/isolation was performed using RNeasy mini kits (Qiagen) and normalized to 2 μg RNA using a NanoDrop® spectrophotometer. Samples were then reverse transcribed into cDNA using Superscript Vilo cDNA Synthesis kit (Thermofisher Scientific). Real-time PCR was executed with Fast SYBR Green (Thermo Fisher Scientific) using the ΔΔct method on the ViiA7 real-time PCR platform (Thermofisher Scientific).
Cultured immortalized hepatocytes known to express and secrete PCSK9 (Lebeau, P., et al., 2017), including HuH7 and HepG2 cells, as well as primary mouse- and human-hepatocytes (PMH and PHH, respectively), were treated with CF for 24 h and assessed for PCSK9 expression via immunoblots and real-time PCR (FIG. 1 A to D). […] Given that sterol deprivation represents another well-established promoter of SREBP2 activation (Lebeau, P., et al., 2017), cells were also treated with CF in the presence and absence of U18666A (U18) that depletes intracellular sterols. […] Next, HepG2 cells were treated with an increasing dose of CF.

ER Ca^2+ levels = assay: ER Ca2+ in HuH7 cells (D1ER, Mag-Fluo-4, TG-induced efflux); type: cell-based, human; conditions: TG 100 nM, CDN 100 μM, CF 200 μM, 24 h
Protocol: Intracellular Ca^2+ in Huh7 and HepG2 cells was measured using a high-affinity Ca^2+ indicator, Fura-2-AM (Thermofisher Scientific). ER Ca^2+ levels were assessed using the low-affinity Ca^2+ indicator, Mag-Fluo-4, and via transfection of cells with D1ER. The D1ER plasmid encodes an ER-resident calcium binding protein linked to a fluorescent protein and increases in fluorescence intensity upon Ca^2+ binding (7). For assessment using indicators, cells were plated in black clear-bottom 96-well plates to a confluence of 70-75% and treated with Ca^2+ modulating agents for 24 h (n=6). Cells were then washed and incubated with Fura-2-AM (2 μM) or Mag-Fluo-4 (2 μM) for 45 minutes at 37° C. in HBSS containing 20 mM HEPES and 2% pluronic acid v/v (Thermofisher Scientific). Fluorescence intensity of intracellular Fura-2-AM was measured at two distinct wavelengths (ex 340/em 515 and ex 380/em 515), following three consecutive washes, to assess bound and unbound states using a SpectraMax® GeminiEM fluorescent spectrophotometer (Molecular Devices, Sunnyvale, California, USA). Fluorescence intensity of Mag-Fluo-4 was quantified at a single wavelength (ex 495/em 515). […] Twenty-four h later, cells were treated with Ca^2+ modulating agents for an additional 24 h and quantified (ex 495/em 515) using a SpectraMax® GeminiEM fluorescent spectrophotometer.
Among the many intracellular effects of CF on the cell, its ability to increase intracellular Ca^2+ levels is well-studied (Echeverri, D., et al., 2010). […] ER Ca^2+ levels were then examined in cells transfected with D1ER; a genetically-encoded ER-resident fluorescence resonance energy transfer (FRET)-based […] chameleon Ca^2+ sensor, which increases in fluorescence intensity upon Ca^2+ binding (Palmer, A. E., et al., 2004). The low-affinity Ca^2+ indicator, Mag-Fluo-4, was also utilized for the direct assessment of ER Ca^2+ and increases in fluorescence intensity upon Ca^2+ binding (Diercks, B. P., et al., 2017; Lebeau, P., et al., 2021). […] ER Ca^2+ content was also assessed indirectly with the high affinity Ca^2+ dye, fura-2-AM (FIG. 6 B). […]

[1] = system: ER stress markers (GRP78, ATF4, pPERK, IRE1α, sXBP1, ATF6); assay: ER stress / UPR readouts in hepatocytes; type: cell-based, human
Protocol: as §1
Following treatment, live cells were incubated in complete DMEM containing 5 μM Thioflavin-T (ThT; Thermofisher Scientific) for 15 minutes. Cells were then fixed in 4% paraformaldehyde and mounted with permafluor. Fluorescent staining was visualized using the EVOS FL colour system at either 20 or 40× magnification.
as §2
Because ER Ca^2+ depletion induces a compensatory unfolded protein response (UPR), it was also postulated that CF may attenuate UPR marker expression by increasing ER Ca^2+ levels. […] Reactive oxygen species production, a process known to occur during conditions of ER stress, was also attenuated by CF (FIG. 9 H). […] While increasing the protein binding ability of chaperones, such as GRP78, CF also attenuates SREBP2-driven gene expression (FIG. 7 L).

SMILES: Cc1ccc2cccc(NC(=O)c3ccc(OC(C)C)cc3)c2n1 [CDN]
- SREBP2 and PCSK9 mRNA transcript level (PCSK9; HuH7, ryanodine 10 μM, CDN 100 μM, 2 APB 50 μM, presence or absence of TG, 24 h): blocked SREBP2 and PCSK9 at the mRNA transcript level
- ER Ca^2+ levels (ER Ca^2+ levels): increased ER Ca^2+ levels
- TG-induced GRP78 expression ([1]; HuH7, with TG 100 nM): blocked TG-induced expression

SMILES: Cn1c(=O)c2c(ncn2C)n(C)c1=O [caffeine, 1,3,7-Trimethylxanthine]
- TG-induced PCSK9 expression (PCSK9; CF 200 μM with thapsigargin 100 nM, 24 h): attenuated PCSK9 expression
- PCSK9 mRNA and secreted protein in presence of ActD (PCSK9; HepG2 pre-treated with actinomycin D): failure of CF to block PCSK9 mRNA
- PCSK9 and SREBP2 mRNA and secreted PCSK9 in presence of siGRP78 (PCSK9; HepG2 transfected with siGRP78): failed to attenuate PCSK9 and SREBP2 mRNA expression or secreted PCSK9 levels
- PCSK9 protein and mRNA transcript levels (PCSK9; HuH7, HepG2, PMH, PHH, 24 h, listed as CF): reduced protein and mRNA transcript levels of PCSK9; also recorded: blocks PCSK9 expression
- U18-induced PCSK9 expression (PCSK9; HuH7, CF 200 μM with U18 10 μM, 24 h): attenuated U18-induced PCSK9 expression
- ER Ca^2+ levels (ER Ca^2+ levels): increased ER Ca^2+ levels
- thioflavin-T-stained misfolded protein aggregates and FLAG-sXBP1 expression ([1]; HuH7): blocked the accumulation of thioflavin-T-stained misfolded protein aggregates
- reactive oxygen species production ([1]; HuH7, TG 100 nM): attenuated
- expression of pPERK, IRE1α, sXBP1, ATF4 and ATF6 ([1]; HuH7, immunoblotting and real-time PCR, listed as CF): reduction in the expression of pPERK, IRE1α, sXBP1, ATF4 and ATF6; also recorded: protects against ER stress
- mRNA of ER stress markers GRP78 and ATF4 ([1]; PHH, CF 200 μM): reduction in mRNA transcript levels of ER stress markers

SMILES: C/C=C(/C)C(=O)O[C@H]1C(C)=C2[C@H]([C@@H]1OC(=O)CCCCCCC)[C@@](C)(OC(C)=O)C[C@H](OC(=O)CCC)[C@@]1(O)[C@H]2OC(=O)[C@@]1(C)O [TG, thapsigargin]
- PCSK9 and SREBP2 expression on ER Ca2+ depletion (PCSK9; HuH7, TG 100 nM, CPA 10 μM): increased PCSK9 and SREBP2 expression
- ER Ca^2+ levels (ER Ca^2+ levels): reduced ER Ca^2+ levels
- GRP78 expression ([1]; HuH7, TG 100 nM, CPA 10 μM): increased the expression of GRP78
